The values that follow are results of earlier work, collected in patent publication US20250263624A1, “Environmentally friendly metal cutting oil with high load-bearing and high anti-wear properties” (Shenyang Peite Technology Co., Ltd, priority 2025, published 2025).

For `CC(C)CCCCCOC(=O)CCCCCCCCC(=O)OCCCCCC(C)C` [diisooctyl sebacate], the Water solubility result is given as “Insoluble”.
